Several values for one entry are separate records, joined by “and”; a condition that tells them apart may be missing. Identical values can stand only once. Like-named read-outs stand apart in the source and are kept apart here.
Legend:
[1] = test system: p53 R213* UGA premature termination codon in HDQ-P1 mammary carcinoma cells; assay: HDQ-p53UGA213 readthrough assay (full-length p53, MSD immunoassay); format: cell-based, human
Description: We utilized HDQ-P1 mammary carcinoma cells, which are homozygous for R213*, a UGA premature termination codon in the gene for the tumor suppressor protein p53 [30]. […] Western blot hybridization and Meso Scale Discovery (MSD) immunoassay detection of p53 were done as previously described. […] Cells (45K per well) were grown in 96-well plates and treated with compounds for 24 hours. […] Cells were lysed with 60 μl per well of lysis buffer (20 mM Tris-HCL, pH 7.5, 1 mM EGTA, 1 mM EDTA,150 mM Nacl, 0.5% Triton X100) for one hour at room temperature and 30 μl of lysate per well were transferred to the coated plate and incubated overnight at 4 °C. […] Plates were then washed three times with PBS-T and 30 μl of 0.25 μ/ml goat anti-rabbit IgG-Sulfo-tag antibody (MSD) in TBS-C was added and incubated for 1 hour at room temperature. Plates were then washed three times with PBS-T and 150 μl read buffer (MSD) was added. Plates were read immediately in a SECTOR S 600 (MSD).

[2] = test system: tGFP-CFTR542X-HA-HIS construct (codon 542 UGA) in 293H cells; assay: tGFP-542X readthrough assay (HA-HIS MSD immunoassay); format: cell-based, human
[3] = test system: fLuc mRNA harboring a UGA nonsense mutation at codon 190 (fLuc-190-NS); format: biochemical, rabbit
Excerpt: ThefLuc-190-NS assay is an in vitro rabbit reticulocyte lysate translation of an fLuc mRNA harboring a UGA nonsense mutation at codon 190 (fLuc-190-NS). It is believed that positively charged aminoglycosides are poorly taken up by cells, and we used this cell-free readthrough assay to eliminate the potential variable of cell uptake when measuring readthrough potency. […] Readthrough protein was detected using a HA-HIS MSD immunoassay described previously.
This cell-free translation assay used synthetic LUC mRNAs harboring an EMCV IRES and LUC codon 190-UGA premature stop codon prepared using the MegaScript in vitro transcription kit (Ambion). Translation reactions were done with the Rabbit Reticulocyte Lysate System (Promega) with 100 ng RNA and increasing concentrations of aminoglycosides. The amount of luminescence produced was determined after approximately 4 hours using a Viewlux CCD imager (Perkin-Elmer). Fold suppression over background was calculated as (aminoglycoside light units/PBS light units).

[4] = test system: activated human peripheral blood mononuclear cells (PBMCs); assay: Cytotoxicity in stimulated PBMCs (CellTitre-Glo ATP); conditions: read-out: Stimulated PBMC CC50
Excerpt: (§1) When considering compounds for potential readthrough therapy it is important to monitor cellular and animal safety. In order to determine the most promising compounds to further evaluate in in vivo safety, we measured cytotoxicity in two different cell types. We used activated human peripheral blood mononuclear cells (PBMCs) (Table 2 and Fig 2D and 2E). PBMCs are a primary cell that when activated with phytohaemagglutinin (PHA) expand quickly and are commonly used as an in vitro surrogate for rapidly growing cells in the human body to evaluate cytotoxicity. Prior to advancing compounds into human studies, safety evaluation in rodents is performed. As an in vitro surrogate for rodent toxicity, we used primary mouse myoblasts.
Frozen human Peripheral Blood Mononuclear Cells (PBMCs) were obtained from […] (Alameda, CA, Cat# PB003F) from a single donor. […] Plates were incubated at 37°C with 5% CO2 for 4 hours prior to compound treatment. Compounds were serially diluted and added to the plates. Plates were incubated at 37°C, 5% CO2 incubator, for 72 hours prior to determinations of ATP levels. Cell viability was determined using a chemiluminescent assay to monitor adenosine triphosphate (ATP) levels in live cells (CellTitre-Glo; CTG; Promega, Cat#G7571). Methods were performed per the manufacturer’s instructions.

primary mouse myoblasts = assay: Cytotoxicity in myoblasts; conditions: read-out: Myoblast CC50
Excerpt: as §1

mouse cochlear explants = test system: mouse cochlear explants; set-up: method as in PMID 24251786; conditions: obtained previously; cited from earlier work
[5] = test system: zebrafish neuromasts (hair cells); assay: Neuromast toxicity assay (DASPEI staining)
Description: All neuromast cytotoxicity assays were done at Biobide–BBD Biophenix SL (Gipuzkoa, Spain). […] Compounds were tested at 5 doses. After 24 hours of exposure embryos were incubated in DASPEI (2-(4-(dimethylamino)styryl) -N-Ethylpyridinium Iodide) for neuromast staining. Images of each embryo were taken and neuromasts counted. A compound was classified as ototoxic when the number of neuromasts in the treated group was less than that in the untreated control group (One Way ANOVA, multiple comparisons vs. vehicle).

[6] = individual experiments (S1 File)
[7] = AVERAGE (S1 File), unit not given for EC5X
[8] = individual experiments (S1 File), unit not printed for EC5X (EC2X of the sheet in uM)
[9] = individual determinations (S1 File)

C[C@@H](O)C1O[C@H](O[C@@H]2C(N)C[C@@H](NC(=O)[C@@H](O)CCN)[C@@H](O)C2O[C@@H]2O[C@H](CN)[C@H](O)C2O)[C@@H](N)C(O)[C@@H]1O (some centres unmarked) [NB84, reference compound]
HDQ-p53UGA213 EC2X ([1]; AVERAGE (S1 File)): 16.6 µM | HDQ-p53UGA213 max ([1]; AVERAGE (S1 File)): 29.7 | HDQ-p53UGA213 EC2X ([1]; concentration required to double the level of full-length p53 protein, average ± SD, at least three experiments, highest concentration 300 μM): 17 ± 5 µM | HDQ-p53UGA213 EC2X [1, 6]: 20.31 µM and <15.63 µM and 17.59 µM and 8.82 µM and 19.52 µM | HDQ-p53UGA213 max ([1]; individual experiments (S1 File), max fold): 15.6 and 52.2 and 25.2 and 30.9 and 25.4 and 29 | HDQ-p53UGA213 (Maxfold) ([1]; maximum readthrough activity above background, average ± SD): 30 ± 12 fold | tGFP-542X EC2X ([2]; 293H cells, 24 hours, average ± SD): 38 ± 12 µM | tGFP-542X EC2X ([2]; AVERAGE (S1 File)): 38.2 µM | tGFP-542X Maxfold ([2]; AVERAGE (S1 File)): 110.3 | tGFP-542X EC5X [2, 7]: 109.2 | tGFP-542X EC2X [2, 6]: 25 µM and 46 µM and 44 µM | tGFP-542X Maxfold [2, 6]: 176 and 74 and 81 | tGFP-542X EC5X [2, 8]: 67 and 132 and 128 | tGFP-542X Maxfold ([2]; maximum readthrough above background, average ± SD): 110 ± 57 fold | fLuc-190-NS EC2X ([3]; AVERAGE (S1 File)): 0.0453 µM | fLuc-190-NS MaxFold ([3]; AVERAGE (S1 File)): 180.8 | fLuc-190-NS EC5X [3, 7]: 0.1430 | fLuc-190-NS EC2X ([3]; cell-free, average ± SD): 0.045 ± 0.011 µM | fLuc-190-NS EC2X [3, 6]: 0.0389 µM and 0.0393 µM and 0.0578 µM | fLuc-190-NS MaxFold [3, 6]: 172.62 and 163.42 and 206.48 | fLuc-190-NS EC5X [3, 8]: 0.1461 and 0.1276 and 0.1554 | CC50 ([4]; AVERAGE (S1 File)): 440 µM | CC50 [4, 9]: 536 µM and 1160 µM and 179 µM and 156 µM and 173 µM | CC50 (primary mouse myoblasts; AVERAGE (S1 File)): 279 µM | CC50 (primary mouse myoblasts; [9]): 411 µM and 147 µM | CC50 (mouse cochlear explants): 20 µM | CC50 ([5]; read-out: Neuromast (CC50), zebrafish embryos 5 dpf, 24 hours exposure, maximum of two measurements): 8 ± 0.1 µM | CC50 ([5]; read-out: Neuromast CC50, AVERAGE (S1 File)): 7.9 µM | CC50 ([5]; read-out: Neuromast CC50, individual determinations (S1 File)): 7.8 µM

Reference: paper PMC6201930 (PLoS ONE, 2018)
